Measured values reported in the supplement of paper PMC11061612.

Legend:
Assay in all cases: combination Emax (second highest fraction inhibited in the dose matrix, 72 h); higher = more inhibition; extreme values may be limits of the assay
[1] = system: CAL-51 (Breast Carcinoma)
Method in brief: (§1)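 Cell lines grown in DMEM/F12 or RPMI with 10% FBS were plated in 1536-well plates and held 24 hours at 37°C, 5% CO2 before 72 hours of exposure to two-drug dose matrices, with DMSO typically at 0.2%. CellTiter-Glo 2.0 luminescence gave viability, which was converted to inhibition. Vehicle wells were set to 0 and blank wells to 1. Combination Emax is the second-highest inhibition in the matrix, and Bliss excess is the observed combination effect minus the expected EA + EB − EA·EB, where EA and EB are the single-agent effects.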

[2] = system: HCC-15 (Squamous Cell Lung Carcinoma)
Method in brief: as §1

[3] = system: UMC-11 (Other Solid Carcinomas)
Method in brief: as §1

[4] = system: HDLM-2 (Hodgkin's Lymphoma)
Method in brief: as §1

[5] = system: RT-112 (Bladder Carcinoma)
Method in brief: as §1

[6] = system: NCI-H69 (Small Cell Lung Carcinoma)
Method in brief: as §1

[7] = system: HARA (Squamous Cell Lung Carcinoma)
Method in brief: as §1

[8] = system: OVCAR-8 (Ovarian Carcinoma)
Method in brief: as §1

[9] = system: OC-314 (Ovarian Carcinoma)
Method in brief: as §1

[10] = system: HO-1-u-1 (Oral Cavity Carcinoma)
Method in brief: as §1

NB14 (Neuroblastoma) = system: NB14 (Neuroblastoma)
Method in brief: as §1

[11] = system: SW1271 (Small Cell Lung Carcinoma)
Method in brief: as §1

[12] = system: KYSE-410 (Esophageal Squamous Cell Carcinoma)
Method in brief: as §1

[13] = system: K5 (Thyroid Gland Carcinoma)
Method in brief: as §1

[14] = system: SW1116 (Colorectal Carcinoma)
Method in brief: as §1

[15] = system: LoVo (Colorectal Carcinoma)
Method in brief: as §1

[16] = system: MDA-MB-468 (Breast Carcinoma)
Method in brief: as §1

[17] = system: RPMI-6666 (Non-Cancerous)
Method in brief: as §1

[18] = system: CAL-54 (Kidney Carcinoma)
Method in brief: as §1

NCI-H2795 (Mesothelioma) = system: NCI-H2795 (Mesothelioma)
Method in brief: as §1

Compound | combination Emax [1] | combination Emax [2] | combination Emax [3] | combination Emax [4] | combination Emax [5] | combination Emax [6] | combination Emax [7] | combination Emax [8] | combination Emax [9] | combination Emax [10] | combination Emax (NB14 (Neuroblastoma)) | combination Emax [11] | combination Emax [12] | combination Emax [13] | combination Emax [14] | combination Emax [15] | combination Emax [16] | combination Emax [17] | combination Emax [18] | combination Emax (NCI-H2795 (Mesothelioma))
NC1(C(=O)N[C@@H](CCO)c2ccc(Cl)cc2)CCN(c2ncnc3[nH]ccc23)CC1 [Capivasertib] + CCN(CCO)CCCOc1ccc2c(Nc3cc(CC(=O)Nc4cccc(F)c4)[nH]n3)ncnc2c1 [AZD2811] (first compound max 10 µM, 7x7, partner max 1 µM) | 0.651 | 0.773 | 0.879 | 0.395 | 0.375 | 0.877 | 0.679 | 0.393 | 0.571 | 0.848 | 0.938 | 0.315 | 0.303 | 0.554 | 0.197 | 0.632 | 0.561 | 0.675 | 0.545 | 0.413
CN(C)CCCOc1ccc(-c2ccc3ncc4c(c3c2)n(C2CCOCC2)c(=O)n4C)cn1 [AZD0156] + C=CCn1c(=O)c2cnc(Nc3ccc(N4CCN(C)CC4)cc3)nc2n1-c1cccc(C(C)(C)O)n1 [AZD1775] (first compound max 1 µM, partner max 1 µM) | 0.728 | 0.299 | 0.377 | 0.721 | 0.514 | 0.312 | 0.809 | 0.8 | 0.515 | 0.77 | 1 | 0.476 | 0.32 | 0.424 | 0.235 | 0.785 | 0.42 | 0.923 | 0.642 | 0.512
COc1cccc(OCCCN)c1-c1cc(Nc2cnc(C#N)cn2)n[nH]1 [Prexasertib] + C[C@@H]1COCCN1C2=NC(=NC(=C2)C3(CC3)[S@](=N)(=O)C)C4=C5C=CNC5=NC=C4 [AZD6738] (first compound max 1 µM, 7x7, partner max 10 µM) | 0.929 | 0.33 | 0.866 | 0.528 | 0.992 | 0.616 | 0.943 | 0.991 | 0.934 | 0.923 | 1 | 0.719 | 0.532 | 0.7 | 0.615 | 0.869 | 0.547 | 0.955 | 0.84 | 0.765
Cc1cc2ncnn2cc1Nc1ncc2c(n1)n(C1CCOCC1)c(=O)n2C [AZD7648] + CN(C)CCCOc1ccc(-c2ccc3ncc4c(c3c2)n(C2CCOCC2)c(=O)n4C)cn1 [AZD0156] (first compound max 10 µM, 7x7, partner max 1 µM) | 0.274 | 0.227 | 0.21 | 0.368 | 0.317 | 0.355 | 0.283 | 0.213 | 0.348 | 0.39 | 0.407 | 0.327 | 0.178 | 0.501 | 0.19 | 0.483 | 0.353 | 0.359 | 0.353 | 0.469
COc1cccc(OCCCN)c1-c1cc(Nc2cnc(C#N)cn2)n[nH]1 [Prexasertib] + CCc1c2c(nc3ccc(O)cc13)-c1cc3c(c(=O)n1C2)COC(=O)[C@]3(O)CC [SN-38] (first compound max 1 µM, 7x7, partner max 0.3 µM) | 0.901 | 0.857 | 0.959 | 0.676 | 1 | 0.896 | 0.966 | 1 | 1 | 0.996 | 1 | 0.769 | 0.705 | 0.628 | 0.763 | 0.847 | 0.817 | 0.976 | 0.855 | 0.813
Cc1c2c(nn1C)CSCc1cc(n(C)n1)CSc1cc(c3ccccc3c1)OCCCc1c(C(=O)O)n(C)c3c-2c(Cl)ccc13 [AZD5991] + CN(C)CCCOc1ccc(-c2ccc3ncc4c(c3c2)n(C2CCOCC2)c(=O)n4C)cn1 [AZD0156] (first compound max 1 µM, 7x7, partner max 1 µM) | 0.476 | 0.303 | 0.486 | 0.985 | 0.876 | 0.314 | 0.312 | 0.219 | 0.239 | 0.245 | 0.771 | 0.27 | 0.236 | 0.183 | 0.173 | 0.496 | 0.452 | 0.502 | 0.263 | 0.812
